Laboratory results published in patent US8314140B2, “4-hydroxythiobenzamide derivatives of drugs” (Antibe Therapeutics Inc., priority 2006, dated 2012).
Entries after “also recorded” stand apart in the source; their conditions may differ. Values belong to the compound of their own block, whether it stands above or below them.

Tests used:
gastric ulcers = assay: Healing of acetic acid-induced gastric ulcers; assay type: in vivo, rat; conditions: oral twice-daily for 4 days; 30 μmol/kg (naproxen, Compound XX 60 μmol/kg); FIG. 17
Method: Gastric ulcers were induced via serosal application of acetic acid, as described by Elliott et al., A nitric oxide-releasing nonsteroidal anti-inflammatory drug accelerates gastric ulcer healing in rats. […] After 4 days of such treatment, the rats were euthanized and the stomach was excised and photographed. The area (in mm^2) of the ulcer was determined planimetrically by an individual unaware of the treatments given to the rats.

[1] = tested on: leukocyte adherence to the vascular endothelium; assay: Leukocyte adherence after NSAID or derivative, intravital microscopy (Example 21); assay type: in vivo, rat; conditions: comment on Table 2
Text: (§1) Briefly, post-capillary mesenteric venules in anestheitized rats are examined under a light microscope.

gastric damage [2] = assay: Incidence of gastric damage at end of the leukocyte adherence experiment
Text: as §1

[3] = H2S generation in buffer and liver homogenate (Example 24); assay type: in vitro ADME; conditions: 1 mM, FIG. 19
Method: Two ml of an assay reaction mixture was introduced in to ice-cold 250 μl of NaOH 0.1 N in a sealed 3-neck reactor. […] Incubations were lead with or without presence of 10% (w/v) liver homogenate and 2 mM pyridoxal 5′-phosphate. A constant stream of nitrogen was passed through the mixture via a gas-inlet capillary. […] Khan et al., 1980). Reactions were initiated by transferring the tube from ice bath to a 37° C. water bath. The stream of nitrogen carried the sulfide acid in the second reactor containing 2 ml of SAOB as described previously. After incubating at 37° C. for 90 minutes, 1 ml of 50% trichloroacetic acid solution was added to mixture to stop the reaction. […] The concentration of sulfide in SAOB solution was measured with a sulfide sensitive electrode as previously described (Ubuka, 2002; Khan et al., 1980).

[4] = tested on: carrageenan-induced paw edema; assay: Carrageenan hindpaw edema model; assay type: in vivo, rat; conditions: oral 30 min prior to carrageenan; diclofenac 1, 3 or 10 mg/kg; Compound XVII equimolar to diclofenac 3 mg/kg; FIG. 14
Method: Male, Wistar rats weighing 175-200 g were given the test compounds orally 30 min prior to subplantar injection of 100 ul of 1% lambda carrageenan.

gastric damage [5] = assay: Gastric damage score 3 h after oral dosing; assay type: in vivo, rat; conditions: oral, 3 h; diclofenac 20 mg/kg or equimolar doses (Compound XVII 27.3 mg/kg, TBZ 7.3 mg/kg); FIG. 8
Text: There were 5 rats in each group.
(§2) Each group consisted of 5 rats.

[6] = hypertensive rats, 60 μmol/kg intraperitoneal bolus, 60 minutes; FIG. 18
COX-2 = target: T1, COX-2 (Rattus norvegicus, UniProt P35355); assay: Rat airpouch assay, exudate PGE2 after zymosan; assay type: in vivo; conditions: 60 μmol/kg; versus vehicle; FIG. 15
T1 construct: from tissue; host or cells: rat subcutaneous airpouch exudate, in vivo, zymosan-induced
T1 sequence (P35355 18-604): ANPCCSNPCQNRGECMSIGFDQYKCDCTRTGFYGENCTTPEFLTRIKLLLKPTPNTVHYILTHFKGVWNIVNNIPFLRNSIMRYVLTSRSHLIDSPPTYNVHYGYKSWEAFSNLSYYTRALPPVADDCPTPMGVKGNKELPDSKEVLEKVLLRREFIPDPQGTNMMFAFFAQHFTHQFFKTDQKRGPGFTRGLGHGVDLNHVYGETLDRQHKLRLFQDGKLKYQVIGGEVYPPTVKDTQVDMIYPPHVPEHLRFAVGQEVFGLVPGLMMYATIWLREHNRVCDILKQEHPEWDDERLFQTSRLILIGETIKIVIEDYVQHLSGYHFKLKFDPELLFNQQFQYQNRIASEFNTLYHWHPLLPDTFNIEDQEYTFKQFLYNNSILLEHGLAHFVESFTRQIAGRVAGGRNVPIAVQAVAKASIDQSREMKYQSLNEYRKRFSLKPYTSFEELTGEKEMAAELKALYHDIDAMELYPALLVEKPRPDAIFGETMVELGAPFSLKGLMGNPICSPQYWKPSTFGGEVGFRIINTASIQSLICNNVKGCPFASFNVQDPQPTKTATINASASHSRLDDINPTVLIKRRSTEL
Method: Briefly, a subcutaneous “pouch” is created by repeated injections of air over several days. Once established, inflammation in the pouch can be induced by injection of 1 mL of 1% zymosan. […] Another group of 5 rats was treated with the vehicle, but received an injection of 0.9% sterile saline into the pouch rather than zymosan.
as §2

visceral pain perception = assay: Rat model of visceral pain perception (colorectal distension, AWR score); assay type: in vivo; conditions: 0.8 mL colorectal distention; glibenclamide 10 mg/kg i.p. 30 min before; FIG. 3
Method: A rat model of visceral pain perception, a pre-clinical model of irritable bowel syndrome, was used in the following example. Rats (male, Wistar, 200-250 g, obtained from Charles River, Monza, Italy), were housed in plastic cages and maintained under controlled conditions with 12-hours light/dark cycle with lights on at 7.00 AM. Tap water and standard laboratory chow were freely available. Before experiments, rats were individually trained by spending 2-3 hours per day in a plexiglass cage for 2-3 days. It allowed them to adjust to a movement-restriction environment. Food was withheld for 12 hours before colorectal distension (CRD) recording were performed. Experiments were performed in awake rats and were conducted in a blind manner in that the observer was not aware of the identity of drug administered to each animal.
In the testing day, rats were sedated with ether inhalation and a 2 cm long latex balloon was inserted intrarectally 2 cm from the anal verge and fixed at the base of the tail. The balloon was connected via a double-barreled cannula to a pressure transducer to continuously monitoring the rectal pressure by a computer (PowerLab PC, A.D. Instruments, Milford, Mass., USA) and to a syringe for inflation/deflation of the balloon. The rats were then housed in a small cage (20×8×8 cm) on an elevated Plexiglas™ platform and allowed to wake up and adapt for 1 hour. After recovery from sedation, animals underwent the CRD procedure and behavioral responses were tested. The night before the experiments, the balloons were inflated and left overnight so the latex stretched and the balloons became compliant.
CRD of 20 seconds, performed every 5 minutes, was applied in increment of 0.4 ml starting from 0.4 ml up to 1.6 ml water. To achieve an accurate measurement of the colonic parameters and perception, the distensions were repeated twice for each intensity and data for each animal were averaged for analysis. Each animal underwent a double set of CRD. Twenty minutes after the first sequence of CRD (0.4 mL-1.6 ml water), drugs were administered intraperitoneally (i.p.) and a second set of CRD was performed. Behavioral responses during the first and the second set of CRD were assessed and compared.
Behavioral response to CRD was assessed by measuring the abdominal withdrawal reflex (AWR) using a semiquantitative score (1).
A rat model of visceral pain perception as described above was used to compare pain perception scores for 5-amino-2-(4-thiocarbamoyl-phenoxycarbonyloxy)-benzoic acid (Compound XXVII) with or without glibenclamide, an inhibitor of ATP-sensitive K^+ (KATP) channels.
Experiments were carried out as described in Example 13, except that groups of 5 rats each were treated with vehicle, trimebutine maleate (10 mg/kg), or with equimolar doses of trimebutine thiocarbamoylbenzoate (Compound III) or thiocarbamolybenzoate alone.

[7] = patients after usual doses; Dig. Dis. Sci. 1989; 34: 573-578; cited from earlier work
human platelet cAMP = assay: Human platelet cAMP concentrations; assay type: cell-based; conditions: 3-100 μM, 10 minutes, IBMX 0.5 mM; versus vehicle; FIG. 21
Method: Platelet-rich plasma (PRP) was prepared as above. Aliquots of 400 μL of PRP were placed in glass tubes which contained IBMX (isobutyl-1-methylxanthine; 0.5 mM), an non-selective phosphodiesterase inhibitor. […] As a positive control, some aliquots of platelets were treated with forskolin (10 μM), a known stimulus of adenylate cyclase. Ten minutes later, the samples of PRP were centrifuged at 9,000 g for 2 min and the supernatant was discarded. The pellet was resuspended in buffer, sonicated for 2 min, then cAMP concentrations were determined using a specific enzyme-linked immunosorbent assay (Cayman Chemical Co., Ann Arbor, Mich., USA). Experiments were repeated 4-6 times for each concentration of each drug.

- melting point: 170 to 172 °C
SMILES: NC(=S)c1ccc(OC(=O)Cc2ccccc2Nc2c(Cl)cccc2Cl)cc1 [Compound XVII, [2-(2,6-dichloro-phenylamino)-phenyl]-acetic acid 4-thiocarbamoyl-phenyl ester]
- gastric ulcer healing (ulcer surface area) (gastric ulcers): significantly greater healing
- number of adherent leukocytes compared to the parent drug alone [1]: significantly reduced the number of adherent leukocytes
- percent incidence of gastric damage compared to the parent drug alone (gastric damage [2]; comment on Table 2): significantly reduced the percent incidence of gastric damage
- Percent Incidence of Gastric Damage (gastric damage [2]; intragastric 30 μmol/kg (naproxen and Compound XX 60 μmol/kg), end of experiment): 20%
- H2S generated in liver homogenate ([3]; 10% (w/v) liver homogenate): greater release of H2S from Compound XVII than from TBZ
- H2S generated in buffer ([3]; potassium phosphate buffer pH 7.4): significantly more release of H2S than an equivalent amount of TBZ
- paw edema (paw volume increase) [4]: reduced paw edema to a greater extent; also recorded: comparable to the effect of diclofenac at a dose of 10 mg/kg
- gastric damage score (gastric damage [5]): no gastric damage; also recorded: significantly less gastric damage than diclofenac

- exudate PGE2 in the pouch (COX-2 activity) (COX-2): significantly suppressed COX-2 activity
SMILES: COc1ccc2cc([C@H](C)C(=O)O)ccc2c1 [naproxen]
- increase in systolic blood pressure [6]: substantial increase in systolic blood pressure

SMILES: Nc1ccc(O)c(C(=O)O)c1 [mesalamine, reference compound]
- pain perception score after glibenclamide pretreatment (visceral pain perception): did not affect the pain perception
- concentration in the colonic lumen [7]: up to 5 mM

SMILES: CCC(C)(C)C(=O)O[C@H]1C[C@@H](C)C=C2C=C[C@H](C)[C@H](CC[C@H]3C[C@H](OC(=O)CCC(=O)Oc4ccc(C(N)=S)cc4)CC(=O)O3)[C@H]21 [Compound I, Succinic acid 2-{2-[8-(2,2-dimethyl-butyryloxy)-2,6-dimethyl-1,2,6,7,8,8a-hexahydro-naphthalen-1-yl]-ethyl}-6-oxo-tetrahydro-pyran-4-yl ester 4-thiocarbamoyl-phenyl ester]
- platelet cAMP (human platelet cAMP): significant increase in platelet cAMP at concentrations of 10, 30 and 100 μM
